Earlier results in patent US20100092398A1, “ANTIMICROBIAL COMPOSITIONS AND APPLICATIONS THEREFORE” (priority 2004, published 2010).

Settings: range given for terpinen-4-ol

## CC1=CCC(O)(C(C)C)CC1 (stereo not shown) [terpinen-4-ol]
  Relative density @ 20° C.: 0.930 to 0.936 g/mL
